Test results published in patent publication US20030050470A1, “Biomarkers and targets for diagnosis, prognosis and management of prostate disease, bladder and breast cancer” (UroCor, Inc., priority 1996, published 2003).
Where two headings read alike, the source gives them in different places.

Tests used:
[1] = system: cyclin A in DU-145 prostate carcinoma cell line; conditions: DU-145 cells (Qiao et al., 1994); cited from earlier work
B 16 melanoma cell line = B 16 melanoma cell line (Rieber & Rieber, 1994); cited from earlier work
[2] = system: PSMA messenger RNA in LNCAP prostate cancer cell line; conditions: LNCAP cells after exposure (Israeli et al., 1994); cited from earlier work
[3] = system: UC 28 gene message in LnCaP cells; conditions: charcoal stripped serum 48 hours, DHT 0, 0.1, 1, 10 and 100 nM for 24 hours, normalized to β-actin
Procedure: FIG. 17. […] LnCaP cells were cultured in RPMI-1640 with 10% charcoal stripped serum for 48 hours prior to treatment. The cells were incubated in DHT for 24 hours. […] RT-PCR message was normalized to β-actin.
Since hormones regulate both prostate and mammary glands, the possibility that expression of this gene is modified by androgen was examined.

SMILES: Cc1ccc(C(=O)Nc2ccc(S(=O)(=O)O)c3cc(S(=O)(=O)O)cc(S(=O)(=O)O)c23)cc1NC(=O)c1cccc(NC(=O)Nc2cccc(C(=O)Nc3cc(C(=O)Nc4ccc(S(=O)(=O)O)c5cc(S(=O)(=O)O)cc(S(=O)(=O)O)c45)ccc3C)c2)c1 [Suramin]
- expression of cyclin A [1]: reduces the expression of cyclin A

SMILES: N[C@@H](Cc1ccc(O)cc1)C(=O)O [L-tyrosine]
- cyclin A activity (B 16 melanoma cell line): decrease in cyclin A activity
- melanogenesis and replicative senescence (B 16 melanoma cell line): promote increased melanogenesis and replicative senescence

SMILES: C[C@]12CCC(=O)C[C@@H]1CC[C@@H]1[C@@H]2CC[C@]2(C)[C@@H](O)CC[C@@H]12 [DHT, dihydrotestosterone]
- PSMA mRNA down-regulation [2]: 8-10 fold
- UC 28 gene expression (UC 28 message level by RT-PCR) [3]: increasing UC 28 message level
- UC 28 gene expression (UC 28 message level by RT-PCR) ([3]; listed as dihydrotestosterone): stimulated by dihydrotestosterone (DHT) in a time and dosage-dependent manner
